Experimental data taken from ChEMBL document CHEMBL3988442, “University of Dundee, Small-Polar-MMV Screening Library” (2021).

Tested on: Schistosoma mansoni
Assay: High throughput screening of compounds against Schistosoma mansoni motility
Assay type: functional
Set-up: dose or concentration left out as unconfirmed

SMILES	Percent Effect [%]
COc1cccc(CNc2c(C)cnc3c2c(=O)n(C)c(=O)n3C)c1	5.662
O=c1nc(SCc2cccnc2)c2c(n1CCO)CCC2	-102.8
CNC(=O)CSc1cnn(CC(=O)Nc2cccc(Cl)c2C)c(=O)c1Cl	-12.29
COc1ccc(Br)c(C(=O)NCC2CCN(S(=O)(=O)C3CC3)CC2)c1	-3.942
O=C(NCC(O)c1cccs1)c1cccc(Cl)c1 (configuration not stated)	-28.05
Cc1ccnc(OCC(=O)N2CCC(C(N)=O)CC2)n1	-71.31
O=C(NCC(Cc1cccc(F)c1)N1CCCC1=O)c1cnccn1 (configuration not stated)	3.976
CCOc1ccc(CN(C)C(=O)NC(C)c2nncn2C)cc1 (configuration not stated)	-46.5
CCN1CCN(S(=O)(=O)c2ncn(C)c2Cl)CC1	-72.02
CC(CNC(=O)c1ccc(F)cc1Cl)N1CCCC1 (configuration not stated)	-36.02
CC(C)(C)NC(=O)CNC(=O)CCc1ccccc1Br	20.34
CC(=O)N1CCC(C(=O)NCCN2CCC(C)CC2)CC1	14.05
CC(=O)N1CCC(C(=O)NCCN2CCCCC2)CC1	25.49
Cc1cc(C)n(CC(=O)N2CCC(c3nc(C)no3)CC2)n1	-18.96
CC(C)CNC(=O)Nc1ccc(CN2CCOC2=O)cc1	8.42
O=C(CCc1ccccc1)Nc1ncccc1OC(F)F	-1.295
CSCCCNC(=O)Nc1cccc(-c2nccn2C)c1	-33.04
Cn1cnc(S(=O)(=O)N2CCN(Cc3ccco3)CC2)c1Cl	-70.1
CS(=O)(=O)CCNC(=O)C1(c2cccc(Cl)c2)CCCCC1	34.87
Cc1ccccc1S(=O)(=O)NC(=O)CSc1ccc2c(c1)OCCO2	-27.11
Cn1cc(-c2csc(N3CCOCC3)n2)cn1	7.634
O=C(Nc1ccnc(OC2CCOC2)c1)C1CCC1 (configuration not stated)	-37.1
CCC(C)N(C)S(=O)(=O)c1ccc(CCNC(C)=O)s1 (configuration not stated)	-44.53
CC(C)c1cnc(CNc2c(F)cccc2-n2cccn2)o1	20.62
O=C(c1ccc(Br)s1)N1CCN(Cc2ccc(OC(F)(F)F)cc2)CC1	31.43

SMILES	Percent Effect [%]
O=C(c1cc(Cl)cc(Cl)c1)N1CCN(c2nccs2)CC1	-19.81
O=C1OCCN1CCOc1nc(-c2ccccc2Cl)no1	-41.52
CC1(NC(=O)Cc2csc(C(C)(C)C)n2)CCS(=O)(=O)C1 (configuration not stated)	-25.94
COCC(NC(=O)c1cc[nH]n1)c1cccc(C(F)(F)F)c1 (configuration not stated)	-87.52
COCC(NC(=O)c1ccc[nH]1)c1cccc(C(F)(F)F)c1 (configuration not stated)	-105.3
O=C(NS(=O)(=O)c1cc(Cl)sc1Cl)c1cccc2c1OCCO2	-35.56
O=C(NCC(F)F)N1CCC(n2ccc(C(F)(F)F)n2)CC1	-27.04
CC(C)(C)C(=O)NCCC(=O)NC(C)(C)c1ccc2c(c1)OCCO2	-18.95
CCOCCN1CCN(Cc2nnc(C3CC3)o2)CC1CC (configuration not stated)	-4.218
Cc1n[nH]c(C2CN(C(=O)CCc3ccsc3)CCO2)n1 (configuration not stated)	-49.32
CCc1noc(C(C)N(C)CC(=O)Nc2cccc(C)n2)n1 (configuration not stated)	0.2571
CNC(=O)COc1ccc(CNCc2ccc(F)cc2F)cc1	-31.94
CCCN1CCC(NC(=O)c2ccc(F)cc2I)CC1	16.82
Cn1cc(CCNC(=O)NC2CCS(=O)(=O)C2)cn1 (configuration not stated)	-23.41
CN(C)S(=O)(=O)N1CCC(Oc2ccc(C#N)cc2)CC1	21.82
Cc1cnn(CC(C)NCc2nc(-c3cccnc3)no2)c1 (configuration not stated)	-19.9
CC(C)(C(=O)NCC(N)=O)c1ccccc1F	10.05
O=C(CCc1cscn1)NS(=O)(=O)c1ccc2ccccc2c1	22.96
Cc1cc(F)ccc1CNCCn1cccn1	-28.39
Cc1nc(CN2CCC(N(C)Cc3noc(C(C)C)n3)C2)cs1 (configuration not stated)	-19.62
Cc1ccc(NC(C)C(=O)NCc2cccs2)cc1C (configuration not stated)	-60.11
CC(C)S(=O)(=O)NCC1CCCN(C(=O)c2cccnc2)C1 (configuration not stated)	-61.29
O=C(NCC1CC1)C1CSCN1S(=O)(=O)c1cccc(F)c1 (configuration not stated)	-77.75
CC(O)CN1CCC(CNCc2ccc(S(C)(=O)=O)cc2)CC1 (configuration not stated)	-16.24
CCCC(C)(C)NC(=O)c1ccc(CC2CC(=O)NC2=O)cc1 (configuration not stated)	-6.374

SMILES	Percent Effect [%]
Cc1n[nH]c(C)c1C1CCCN1C(=O)NCC(=O)NC(C)(C)C (configuration not stated)	-7.96
COc1ccc(C2CCCN2C(=O)CCNc2ncccn2)cc1 (configuration not stated)	-36.49
Cc1n[nH]c(C)c1C1CCCN1C(=O)NCCSC(C)(C)C (configuration not stated)	-28.72
CN(C)C(C(=O)N1CCCC1)c1ccccc1F (configuration not stated)	-55.33
NC(=O)c1cccc(CC2CCN(C(=O)CO)C2)c1 (configuration not stated)	-14.33
COCCN1CCC(CN(CC2CCCO2)C(=O)COC)CC1 (configuration not stated)	27.45
COCCN1CCN(C(=O)c2cc(C(C)C)on2)[C@H]2CS(=O)(=O)C[C@H]21	3.129
CCOCCOc1ccccc1C(=O)N1CCCC(c2ncc[nH]2)C1 (configuration not stated)	-53.5
Cc1ncsc1CCC(=O)NCc1cc2n(n1)CCN(C(=O)N(C)C)C2	10.91
CN(Cc1ncc[nH]1)S(=O)(=O)c1cccc(C(=O)N2CCOCC2)c1	-64.53
CCn1c(N)nc2cc(C(=O)NCCc3ccccc3C)cnc21	-46.13
Cn1cc(CCC(=O)N2C[C@H]3CC[C@@H]2CN(Cc2ccccc2)C3)cn1	-38.92
Cc1nc[nH]c1CN1C[C@@H]2CC[C@H](C1)N(C(=O)CCNS(C)(=O)=O)C2	1.774
CCc1nnc(CN(C)c2nc(C(C)C)nc3c2cnn3C)o1	-37.68
Cc1nc(CC(=O)N2CCC[C@H]2c2nc(C(C)C)no2)cs1	11.66
CCCS(=O)(=O)c1ncc(CN2CCC(CO)CC2)n1CC1CCCO1 (configuration not stated)	-65.7
CN(C)C(=O)N1CCN(C(=O)C(c2ccccc2F)N(C)C)CC1 (configuration not stated)	-1.181
COc1ccccc1OCc1cc(C(=O)N2C[C@H](O)[C@@H](N(C)C)C2)n[nH]1	-29.56
O=C(CCc1cc2n(n1)CCCN(C(=O)c1cccnc1)C2)NC1CC1	5.877
CS(=O)(=O)N1CCC(Oc2ccc(C(=O)N3CCSCC3)cc2Cl)CC1	-0.7709
CC(C)=CCN1C(=O)[C@H]2CC[C@@H]1CN(Cc1cccnc1N)C2	-5.593
CCc1ncc2c(n1)CN(C(=O)COC)C2	-20.5
Cc1cc(N2CCN(Cc3nccn3C)CC2)cc(C)n1	-24.56
O=C(CCc1cc2n(n1)CCCN(C(=O)c1ccccn1)C2)NC1CC1	-25.84
CCn1nc(CC(C)C)cc1C(=O)NCCn1cccc1	-58.97

SMILES	Percent Effect [%]
Cc1nc(CN2CCCC2c2nc(C(C)C)no2)cs1 (configuration not stated)	-46.84
CC(=O)Nc1cccc(C(=O)Nc2cnc3n2CCCC3)c1	-24.57
Cc1ccc2cc(C3(O)CCN(C(=O)CN4CCCC4)CC3)ccc2n1	5.836
CCS(=O)(=O)N1CCC(c2nnc(Cn3cccn3)n2C2CC2)CC1	-7.484
O[C@H]1[C@H](n2cc(-c3ccccc3)nn2)c2ccccc2C12CCNCC2	3.648
CC(C)C(=O)N1CCN(C(=O)c2cc(C(C)C)on2)[C@H]2CS(=O)(=O)C[C@H]21	-39.14
Cc1noc(C)c1CN1C(=O)[C@H]2CC[C@@H]1CN(Cc1cccnc1N)C2	-25.95
Cc1occc1C(=O)N1CCC2(CCC(=O)N(CC(N)=O)C2)CC1	13.97
CCn1c(N)nc2cc(C(=O)NCc3ccccc3Cl)cnc21	-40.17
COc1ccccc1Oc1ncccc1CNC(=O)[C@@H](C)NC(C)=O	-37.6
Cn1c(Cn2ccnc2)nnc1C1CCN(Cc2cccnc2N)CC1	-10.4
Cc1ccsc1[C@@H]1CCN(C(=O)c2cc3ccccc3[nH]2)C[C@H]1O	28.15
Cc1ccc(S(=O)(=O)NC2CC2)cc1C	-24.32
CN(CCc1ccccc1)c1cnn(CC(=O)N2CCSCC2)c(=O)c1	-28.25
COc1cccc(N2CCN(Cc3ccc(NC(C)=O)cc3)CC2=O)c1	-11.44
NC(=O)NCC(=O)N1C[C@H]2CC[C@@H]1CN(Cc1ccccc1)C2	-13.56
Cc1cc(CC(=O)N2CCCC2c2nc(C(C)C)no2)on1 (configuration not stated)	-26.98
CCC1CN(C(=O)c2ccc(=O)[nH]c2)CCC(=O)N1Cc1ccccc1 (configuration not stated)	-27.12
O=C(CSCC1CC1)N1CCCC(c2nccn2Cc2ccncc2)C1 (configuration not stated)	9.639
Cc1nn(C)c(N(C)C)c1CNCC(O)COc1ccccc1.Cl (configuration not stated)	-91.65
Cl.NC(=O)COc1ccc(CNCc2ccc(F)cc2F)cc1	-10.97
Cl.Cl.OC(CN1CCN(Cc2ccc(F)cc2)CC1)C1CC1 (configuration not stated)	-83.95
